The values that follow come from patent US20050228180A1, “Alpha, omega-dicarboximide derivatives as useful uro-selective a1a adrenoceptor blockers” (priority 2002, published 2005).

For one assay, the target named is T1, α1B adrenoceptor (Rattus norvegicus, UniProt P15823).
T1 construct: from tissue; host or cells: rat liver membranes
T1 sequence (P15823 1-515): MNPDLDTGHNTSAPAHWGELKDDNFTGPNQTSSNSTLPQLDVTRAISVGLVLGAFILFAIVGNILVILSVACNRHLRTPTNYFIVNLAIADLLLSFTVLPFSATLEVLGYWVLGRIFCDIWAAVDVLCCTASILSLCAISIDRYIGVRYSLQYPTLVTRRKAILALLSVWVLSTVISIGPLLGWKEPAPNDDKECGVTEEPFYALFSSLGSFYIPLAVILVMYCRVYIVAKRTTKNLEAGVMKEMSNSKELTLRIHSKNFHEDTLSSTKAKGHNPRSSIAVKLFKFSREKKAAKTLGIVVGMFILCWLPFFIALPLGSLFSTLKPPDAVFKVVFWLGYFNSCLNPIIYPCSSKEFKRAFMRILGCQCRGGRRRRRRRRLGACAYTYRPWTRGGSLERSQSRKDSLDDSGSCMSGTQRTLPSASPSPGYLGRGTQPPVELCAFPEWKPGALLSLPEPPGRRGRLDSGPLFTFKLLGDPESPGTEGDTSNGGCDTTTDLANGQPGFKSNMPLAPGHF
Put plainly: Radioligand binding, [3H] prazosin displacement, rat liver membranes. Particulars: read-out: Affinity (Ki) α1B (Rat Liver). How it is done: (§1) Receptor binding assays were performed using native a-adrenoceptors. The affinity of different compounds for α1A and α1B adrenoceptor subtypes was evaluated by studying their ability to displace specific [^3H] prazosin binding from the membranes of rat submaxillary and liver respectively (Michel et al., Br J Pharmacol, 1989: 98:883). The binding assays were performed according to U+Prichard et al. (Eur J Pharmacol, 1978; 50:87 with minor modifications.
(§2) Submaxillary glands were isolated immediately after sacrifice. The liver was perfused with buffer (Tris HCl 50 mM, NaCl 100 mM, 10 mM EDTA pH 7.4). The tissues were homogenised in 10 volumes of buffer (Tris HCl 50 mM, NaCl 100 mM, 10 mM EDTA pH 7.4). The homogenate was filtered through two layers of wet gauge and filtrate was centrifuged at 500 g for 10 min. The supernatant was subsequently centrifuged at 40,000 g for 45 min. The pellet thus obtained was resuspended in the same volume of assay buffer (Tris HCl 50 mM, 5 mM EDTA pH 7.4) and was stored at −70° C. until the time of assay.
(§3) The membrane homogenates (150-250 μg protein) were incubated in 250 μl of assay buffer (Tris HCl 50 mM, EDTA 5 mM, pH 7.4) at 24-25° C. for 1 hour. Non specific binding was determined in the presence of 300 nM prazosin. The incubation was terminated by vacuum filtration over GF/B fibre filters. The filters were then washed with ice cold 50 mM Tris HCl buffer (pH 7.4). The filtermats were dried and bound radioactivity retained on filters was counted. The IC50 and Kd were estimated by using the non-linear curve-fitting program using G Pad Prism software. The value of inhibition constant Ki was calculated from competitive binding studies by using Cheng & Prusoff equation (Cheng & Prusoff, Biochem Pharmacol, 1973, 22: 3099-3108), Ki=IC50/(1+L/Kd) where L is the concentration of [^3H] prazosin used in the particular experiment (Table 1).

Another assay has as its target T2, α1A adrenoceptor (Rattus norvegicus, UniProt P43140).
T2 construct: from tissue; host or cells: rat submaxillary gland membranes
T2 sequence (P43140 1-466): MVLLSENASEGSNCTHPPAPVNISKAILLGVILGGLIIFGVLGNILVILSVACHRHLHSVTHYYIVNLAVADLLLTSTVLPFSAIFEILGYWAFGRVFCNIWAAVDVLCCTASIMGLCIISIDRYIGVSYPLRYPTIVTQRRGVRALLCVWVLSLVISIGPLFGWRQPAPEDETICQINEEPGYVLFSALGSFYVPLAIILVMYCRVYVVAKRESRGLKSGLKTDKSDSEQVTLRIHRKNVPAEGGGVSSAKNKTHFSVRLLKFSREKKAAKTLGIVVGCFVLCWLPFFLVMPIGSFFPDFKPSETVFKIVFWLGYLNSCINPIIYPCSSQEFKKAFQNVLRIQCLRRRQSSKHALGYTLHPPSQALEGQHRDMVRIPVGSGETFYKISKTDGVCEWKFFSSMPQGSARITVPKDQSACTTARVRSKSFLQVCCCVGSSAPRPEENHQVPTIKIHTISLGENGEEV
Put plainly: Radioligand binding, [3H] prazosin displacement, rat submaxillary membranes. Particulars: for Ki: [3H] prazosin displacement, rat submaxillary membranes, read-out: Affinity (Ki) α1A (Rat Submaxillary); for α1B/α1A: ratio of binding affinities, rat liver / rat submaxillary. As to the method: as §1, §2, §3

The target in assay [1] is T3, α1A adrenoceptor (prostate) (Rattus norvegicus, UniProt P43140).
T3 construct: from tissue; host or cells: isolated prostate tissue
T3 sequence (P43140 1-466): T2 sequence (P43140 1-466)
The assay can be described thus: In vitro functional assay, isolated prostate, phenylepinephrine contraction. Format: cell-based. Particulars: for Selectivity α1D/α1A: functional, from pKB; for Kb: rat prostate, phenylepinephrine, read-out: α Adrenoceptor Subtype (pKB) α1A (converted). From the text: (§4) In order to study selectivity of action of these compounds towards different a-adrenoceptor subtypes, the ability of these compounds to antagonise (α1D) prostate (α1A) and spleen (α1B) was studied. Aorta and spleen tissues were isolated from urethane anaesthetized (1.5 g/kg) male wister rats. Isolated tissues were mounted in organ bath containing Krebs Henseleit buffer of the following composition (mM): NaCl 118; KCl 4.7; CaCl2 2.5; MgSO4 7H2O 1.2; NaHCO3 25; KH2PO4 1.2; glucose 11.5. Buffer was maintained at 37° C. and aereated with a mixture of 95% O2 and 5% CO2. A resting tension of 2 g (aorta) or 1 g (spleen and prostate) was applied to tissues. Contractile response was monitored using a force displacement transducer and recorded on chart recorders. Tissues were allowed to equilibrate for 2 hours. At the end of equilibration period, concentration response curves to norepinephrine (aorta) and phenylepinephrine (spleen and prostate) were obtained in the absence and presence of tested compound (at concentration of […]). Antagonist affinity was calculated and expressed as pKB values in Table II.

The target in another assay is T4, α1D adrenoceptor (aorta) (Rattus norvegicus, UniProt P23944).
T4 construct: Isolated tissues were mounted in organ bath containing Krebs Henseleit buffer; from tissue; host or cells: isolated rat aorta
T4 sequence (P23944 1-561): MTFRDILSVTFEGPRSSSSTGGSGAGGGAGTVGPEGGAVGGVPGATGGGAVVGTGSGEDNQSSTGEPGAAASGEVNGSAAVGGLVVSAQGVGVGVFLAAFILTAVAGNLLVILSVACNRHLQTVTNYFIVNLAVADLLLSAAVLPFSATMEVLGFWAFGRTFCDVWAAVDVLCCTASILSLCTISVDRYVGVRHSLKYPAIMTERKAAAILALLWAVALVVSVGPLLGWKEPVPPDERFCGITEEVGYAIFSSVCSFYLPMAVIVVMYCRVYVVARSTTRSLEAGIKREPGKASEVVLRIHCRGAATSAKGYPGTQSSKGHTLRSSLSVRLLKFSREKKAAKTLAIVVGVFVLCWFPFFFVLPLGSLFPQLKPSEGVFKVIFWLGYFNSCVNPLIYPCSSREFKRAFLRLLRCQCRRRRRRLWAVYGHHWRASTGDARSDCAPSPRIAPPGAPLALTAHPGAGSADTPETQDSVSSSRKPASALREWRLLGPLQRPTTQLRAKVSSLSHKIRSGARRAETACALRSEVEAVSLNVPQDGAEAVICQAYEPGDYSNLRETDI
The assay can be described thus: In vitro functional assay, isolated aorta, norepinephrine contraction. It counts as cell-based. Particulars: read-out: α Adrenoceptor Subtype (pKB) α1D (converted).
Source text: as §4

Counter-ions that a name gives are not always drawn. A value given as a limit tells only on which side of the number the result lay.

One may read the Ki as the dissociation constant of the complex between target and ligand, obtained from inhibition or displacement. Consider `CCOc1ccccc1N1CCN(CCCN2C(=O)C3CCC(O)CC3C2=O)CC1.Cl` (stereo not drawn) [Compound No. 18, 2-[3-{4-(2-Ethoxyphenyl)piperazin-1-yl}propyl]-5-hydroxy-3a,4,5,6,7,7a-hexahydro-1H-isoindole-1,3(2H)-dione hydrochloride], for which the results for the Ki at α1B adrenoceptor and on α1A adrenoceptor were 0.097 µM and 0.0015 µM, respectively. The α1B/α1A on α1A adrenoceptor came out at 65. In addition, the “Selectivity α1D/α1A” value in assay [1] was found to be 1.3. In addition, the Kb in assay [1] was 0.000427 µM; at α1D adrenoceptor (aorta), 0.000575 µM.
In the case of `CC(C)Oc1cc(N)ccc1N1CCN(CCCN2C(=O)C3CC=CCC3C2=O)CC1.Cl` (stereo not drawn) [Compound No. 26, 2-[3-{4-(2-Isopropoxy-4-aminophenyl)piperazin-1-yl}propyl]-3a,4,7,7a-tetrahydro-1H-isoindole-1,3(2H)-dione hydrochloride], the Ki on α1B adrenoceptor turned out to be 2.09 µM; at α1A adrenoceptor, 0.00883 µM. In addition, the α1B/α1A on α1A adrenoceptor is 237. The “Selectivity α1D/α1A” value in assay [1] is 105. Also, the Kb in assay [1] is 0.00158 µM; at α1D adrenoceptor (aorta), 0.166 µM.
Regarding `CC(C)Oc1ccccc1N1CCN(CC(O)CN2C(=O)CCCC2=O)CC1.Cl` (stereo not drawn) [Compound No. 29, 1-[4-(2-Isopropoxyphenyl)piperazin-1-yl]-2-hydroxy-3-(2,6-dioxopiperidin-1-yl)propane hydrochloride], the Ki at α1B adrenoceptor was 0.238 µM. In addition, on α1A adrenoceptor, the Ki worked out at 0.0028 µM and the α1B/α1A worked out at 85. Moreover, in assay [1], the “Selectivity α1D/α1A” value turned out to be 45 and the Kb is 0.000229 µM. Moreover, the Kb on α1D adrenoceptor (aorta) was 0.0102 µM.
In the case of `COc1ccccc1N1CC[N+]([O-])(CC(O)CN2C(=O)CCCC2=O)CC1` (stereo not drawn) [Compound No. 69, 1-[4-(2-Methoxyphenyl)piperazin-1-yl-1-N-oxide]-3-(2,6-dioxopiperidin-1-yl]-2-hydroxypropane], the results for the Ki on α1B adrenoceptor and at α1A adrenoceptor were greater than 10 µM and 7.16 µM, respectively. In addition, on α1A adrenoceptor, the α1B/α1A is greater than 10.
As for `O=C1CCCC(=O)N1CCC[N+]1([O-])CCN(c2ccccc2O)CC1` [Compound No. 70, 1-[4-(2-Hydroxyphenyl)piperazin-1-yl-1-N-oxide]-3-(2,6-dioxopiperidin-1-yl]propane], the Ki at α1B adrenoceptor worked out at 4.92 µM. Moreover, at α1A adrenoceptor, the Ki was 6.75 µM and the α1B/α1A was 0.7.
Take `CC(C)Oc1ccccc1N1CCN(CCCN2C(=O)C3CC=CCC3C2=O)C(=O)C1=O` (stereo not drawn) [Compound No. 71, 2-[3-{4-(2-Isopropoxyphenyl)-2,3-dioxopiperazin-1-yl}-propyl]-3a,4,7,7a-tetrahydro-1H-isoindole-1,3(2H)-dione]: at α1B adrenoceptor, the Ki was greater than 10 µM. On α1A adrenoceptor, the Ki was greater than 1 µM and the α1B/α1A is reported as 1.
As for `CC(C)Oc1ccccc1N1CCN(CCCN2C(=O)C3C(O)C=CC(O)C3C2=O)CC1` (stereo not drawn) [Compound No. 72, 2-[3-{4-(2-Isopropoxyphenyl)piperazin-1-yl}propyl]-4,7-dihydroxy-3a,4,7,7a-tetrahydro-1H-isoindole-1,3(2H)-dione], the figures for the Ki on α1B adrenoceptor and at α1A adrenoceptor were 0.142 µM and 0.00054 µM, respectively. Further, the α1B/α1A at α1A adrenoceptor was found to be 263.
The matching figures for `CCN(CCCN1C(=O)C2CC=CCC2C1=O)CCNc1ccccc1OC(C)C` (stereo not drawn) [Compound No. 74, 2-[N-{N′-(2-Isopropoxyphenyl)aminoethyl}ethylaminopropyl]-3a,4,7,7a-tetrahydro-1H-isoindole-1,3(2H)-dione]: greater than 15 µM, 0.202 µM and greater than 74.
For `COC1=C(OC)CC2C(=O)N(CCCN3CCN(c4ccccc4OC(C)C)CC3)C(=O)C2C1` (stereo not drawn) [Compound No. 75, 2-[3-{4-(2-Isopropoxyphenyl)piperazin-1-yl}propyl]-5,6-dimethoxy-3a,4,7,7a-tetrahydro-1H-isoindole-1,3 (21H)-dione hydrochloride], the Ki at α1B adrenoceptor came to 0.071 µM. Also, at α1A adrenoceptor, the Ki worked out at 0.0023 µM and the α1B/α1A is 31.
In the case of `COC1CC2C(=O)N(CCCN3CCN(c4ccccc4OC(C)C)CC3)C(=O)C2CC1OC.Cl` (stereo not drawn) [Compound No. 76, 2-[3-{4-(2-Isopropoxyphenyl)piperazin-1-yl}propyl]-5,6-dimethoxy-3a,4,5,6,7,7a-hexahydro-1H-isoindole-1,3(2H)-dione hydrochloride], the Ki on α1B adrenoceptor was 0.192 µM. Besides, at α1A adrenoceptor, the Ki is 0.0014 µM and the α1B/α1A was 137.
On the same counts, the results for `CC(C)Oc1ccccc1N1CCN(CCCN2C(=O)C3C(c4ccccc4)C=CC(c4ccccc4)C3C2=O)CC1` (stereo not drawn) [Compound No. 77, 2-[3-{4-(2-Isopropoxyphenyl)piperazin-1-yllpropyl]-4,7-diphenyl-3a,4,7,7a-tetrahydro-1H-isoindole-1,3(2H)-dione hydrochloride] are 0.916 µM, 0.485 µM and 1.9.
Turning to `COc1ccccc1N1CCN(CCCN2C(=O)C3C(c4ccccc4)C=CC(c4ccccc4)C3C2=O)CC1.Cl` (stereo not drawn) [Compound No. 78, 2-[3-{4-(2-Methoxyphenyl)piperazin-1-yl}propyl]-4,7-diphenyl-3a,4,7,7a-tetrahydro-1H-isoindole-1,3(2H)-dione hydrochloride], on α1B adrenoceptor, the Ki came to 0.334 µM. At α1A adrenoceptor, the Ki was 0.322 µM and the α1B/α1A came to 1.
